pIC50: −log10 of the molar value.
Legend:
[1] = target: T1, CDK3 (Homo sapiens, UniProt Q00526); assay: Kinase inhibition, 33P radiometric assay (Millipore Kinase Profiler); assay type: biochemical
T1 construct: purchased Millipore (Kinase Profiler service)
Procedure: (§1) Kinase inhibitory potency of SKLB-850 against a number of selected kinases were measured with gold-standard^33 P radio-labeled technology. […] For the remaining 11 kinases tested, SKLB-850 exibited very weak or no activity (IC50 > 10 μM).
(§2) The IC50 values of SKLB-850 for kinase inhibition in vitro were measured by radiometric assays conducted by Kinase Profiler service provided by Millipore as described in Pan’s study.

[2] = target: T2, EGRF (Homo sapiens, UniProt P00533); assay: as above; assay type: biochemical; conditions: EGRF (text: EGFR)
T2 construct: purchased Millipore (Kinase Profiler service)
T2 sequence (P00533 25-1210): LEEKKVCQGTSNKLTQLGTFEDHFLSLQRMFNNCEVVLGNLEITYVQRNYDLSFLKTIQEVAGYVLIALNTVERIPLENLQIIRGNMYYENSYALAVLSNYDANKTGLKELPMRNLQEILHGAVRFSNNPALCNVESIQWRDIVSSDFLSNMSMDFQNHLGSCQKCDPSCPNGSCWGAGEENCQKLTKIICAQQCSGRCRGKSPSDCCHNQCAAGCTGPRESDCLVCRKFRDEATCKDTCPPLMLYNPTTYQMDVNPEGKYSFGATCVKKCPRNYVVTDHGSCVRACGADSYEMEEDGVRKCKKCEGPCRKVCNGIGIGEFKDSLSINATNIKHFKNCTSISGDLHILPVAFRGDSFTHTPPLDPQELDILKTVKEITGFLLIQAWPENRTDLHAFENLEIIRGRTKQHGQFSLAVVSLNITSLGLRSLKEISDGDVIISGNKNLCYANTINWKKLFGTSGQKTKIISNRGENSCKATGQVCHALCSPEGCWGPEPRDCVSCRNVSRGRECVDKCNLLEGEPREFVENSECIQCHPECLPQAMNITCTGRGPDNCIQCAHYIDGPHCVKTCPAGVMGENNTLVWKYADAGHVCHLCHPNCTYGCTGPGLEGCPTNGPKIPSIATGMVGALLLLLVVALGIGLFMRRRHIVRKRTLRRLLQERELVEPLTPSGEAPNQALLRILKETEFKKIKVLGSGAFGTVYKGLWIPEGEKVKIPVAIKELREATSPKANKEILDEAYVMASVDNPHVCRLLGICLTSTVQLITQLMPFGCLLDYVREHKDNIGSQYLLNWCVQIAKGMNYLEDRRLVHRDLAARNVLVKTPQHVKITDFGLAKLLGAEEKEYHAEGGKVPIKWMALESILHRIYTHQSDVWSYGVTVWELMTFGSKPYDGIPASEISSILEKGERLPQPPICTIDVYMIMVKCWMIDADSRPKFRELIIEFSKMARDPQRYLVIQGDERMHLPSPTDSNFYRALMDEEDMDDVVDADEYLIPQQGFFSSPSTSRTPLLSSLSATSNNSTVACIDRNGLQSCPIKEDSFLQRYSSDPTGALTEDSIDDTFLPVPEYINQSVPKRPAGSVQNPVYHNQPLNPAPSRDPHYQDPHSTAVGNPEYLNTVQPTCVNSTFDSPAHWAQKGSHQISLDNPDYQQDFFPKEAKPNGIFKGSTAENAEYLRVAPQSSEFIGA
Procedure: as §1, §2

[3] = target: T3, EphB3 (Homo sapiens, UniProt P54753); assay: as above; assay type: biochemical
T3 construct: purchased Millipore (Kinase Profiler service)
T3 sequence (P54753 34-998): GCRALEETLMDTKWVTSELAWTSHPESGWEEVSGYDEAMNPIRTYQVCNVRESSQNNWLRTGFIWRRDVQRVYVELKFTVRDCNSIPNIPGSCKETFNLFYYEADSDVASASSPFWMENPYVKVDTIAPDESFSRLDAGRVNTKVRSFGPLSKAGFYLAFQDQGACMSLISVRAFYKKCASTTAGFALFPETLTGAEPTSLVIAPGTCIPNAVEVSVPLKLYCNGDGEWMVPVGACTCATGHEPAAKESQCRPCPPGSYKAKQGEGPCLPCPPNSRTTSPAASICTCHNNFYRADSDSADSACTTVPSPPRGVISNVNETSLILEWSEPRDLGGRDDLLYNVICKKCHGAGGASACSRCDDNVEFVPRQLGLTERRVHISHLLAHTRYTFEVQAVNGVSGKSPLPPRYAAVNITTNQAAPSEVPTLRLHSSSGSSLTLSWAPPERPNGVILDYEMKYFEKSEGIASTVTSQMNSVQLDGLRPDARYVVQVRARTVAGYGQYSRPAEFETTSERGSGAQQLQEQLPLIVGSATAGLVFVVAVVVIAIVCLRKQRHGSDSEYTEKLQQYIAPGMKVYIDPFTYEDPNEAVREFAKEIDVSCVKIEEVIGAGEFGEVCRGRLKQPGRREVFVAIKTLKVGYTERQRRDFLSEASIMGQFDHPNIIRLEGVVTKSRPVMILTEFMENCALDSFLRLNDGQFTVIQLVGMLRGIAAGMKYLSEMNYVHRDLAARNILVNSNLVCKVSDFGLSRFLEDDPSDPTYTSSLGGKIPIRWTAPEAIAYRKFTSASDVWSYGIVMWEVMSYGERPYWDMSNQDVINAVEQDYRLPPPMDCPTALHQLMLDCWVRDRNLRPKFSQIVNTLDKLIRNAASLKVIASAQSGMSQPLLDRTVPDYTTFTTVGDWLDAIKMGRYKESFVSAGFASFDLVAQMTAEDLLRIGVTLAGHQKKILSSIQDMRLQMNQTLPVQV
Procedure: as §1, §2

[4] = target: T4, FAK (Homo sapiens, UniProt Q05397); assay: as above; assay type: biochemical
T4 construct: purchased Millipore (Kinase Profiler service)
Procedure: as §1, §2

[5] = target: T5, GRK1 (Homo sapiens, UniProt Q15835); assay: as above; assay type: biochemical
T5 construct: purchased Millipore (Kinase Profiler service)
Procedure: as §1, §2

[6] = target: T6, GSK3α (Homo sapiens, UniProt P49840); assay: as above; assay type: biochemical
T6 construct: purchased Millipore (Kinase Profiler service)
T6 sequence (P49840 whole entry): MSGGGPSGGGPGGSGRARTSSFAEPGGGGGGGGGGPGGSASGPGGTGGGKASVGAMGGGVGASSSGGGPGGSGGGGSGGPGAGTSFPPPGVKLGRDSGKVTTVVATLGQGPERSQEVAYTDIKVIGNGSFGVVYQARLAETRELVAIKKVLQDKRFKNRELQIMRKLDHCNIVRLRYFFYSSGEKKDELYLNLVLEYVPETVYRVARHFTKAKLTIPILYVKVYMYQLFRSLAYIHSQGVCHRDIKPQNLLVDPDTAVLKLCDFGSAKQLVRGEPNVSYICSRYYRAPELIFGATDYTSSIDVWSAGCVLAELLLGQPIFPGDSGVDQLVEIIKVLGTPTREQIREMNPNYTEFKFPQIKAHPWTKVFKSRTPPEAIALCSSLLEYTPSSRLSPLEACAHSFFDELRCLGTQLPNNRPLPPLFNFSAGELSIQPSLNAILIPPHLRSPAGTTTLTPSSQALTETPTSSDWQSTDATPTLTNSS
Procedure: as §1, §2

[7] = target: T7, GSK3β (Homo sapiens, UniProt P49841); assay: as above; assay type: biochemical
T7 construct: purchased Millipore (Kinase Profiler service)
T7 sequence (P49841 whole entry): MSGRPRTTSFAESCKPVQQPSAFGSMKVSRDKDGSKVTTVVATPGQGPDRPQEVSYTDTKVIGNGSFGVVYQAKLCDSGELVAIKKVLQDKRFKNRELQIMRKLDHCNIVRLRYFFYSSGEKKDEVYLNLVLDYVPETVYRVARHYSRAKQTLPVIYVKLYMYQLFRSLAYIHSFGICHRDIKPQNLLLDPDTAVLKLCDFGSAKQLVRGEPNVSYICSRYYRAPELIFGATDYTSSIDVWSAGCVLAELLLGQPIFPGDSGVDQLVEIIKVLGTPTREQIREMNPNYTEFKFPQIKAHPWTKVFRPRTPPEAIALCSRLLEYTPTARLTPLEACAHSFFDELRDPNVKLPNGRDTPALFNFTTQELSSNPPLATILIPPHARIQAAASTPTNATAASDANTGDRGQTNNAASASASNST
Procedure: as §1, §2

[8] = target: T8, JAK2 (Homo sapiens, UniProt O60674); assay: as above; assay type: biochemical
T8 construct: purchased Millipore (Kinase Profiler service)
Procedure: as §1, §2

[9] = target: T9, MKK4 (Mus musculus, UniProt P47809); assay: as above; assay type: biochemical
T9 construct: purchased Millipore (Kinase Profiler service)
T9 sequence (P47809 2-397 limits assumed): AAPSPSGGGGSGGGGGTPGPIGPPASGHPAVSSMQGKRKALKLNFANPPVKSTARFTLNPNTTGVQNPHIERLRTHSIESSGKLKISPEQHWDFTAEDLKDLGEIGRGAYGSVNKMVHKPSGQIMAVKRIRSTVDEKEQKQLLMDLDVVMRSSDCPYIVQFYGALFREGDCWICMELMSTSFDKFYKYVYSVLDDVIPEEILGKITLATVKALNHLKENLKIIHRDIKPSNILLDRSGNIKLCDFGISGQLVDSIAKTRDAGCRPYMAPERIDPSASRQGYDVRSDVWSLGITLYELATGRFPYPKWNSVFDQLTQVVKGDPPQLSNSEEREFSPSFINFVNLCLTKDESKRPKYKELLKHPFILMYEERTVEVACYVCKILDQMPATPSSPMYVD
Procedure: as §1, §2

[10] = target: T10, PIP4K2α (Homo sapiens, UniProt P48426); assay: as above; assay type: biochemical
T10 construct: purchased Millipore (Kinase Profiler service)
Procedure: as §1, §2

[11] = target: T11, PKBα (Homo sapiens, UniProt P31749); assay: as above; assay type: biochemical
T11 construct: purchased Millipore (Kinase Profiler service)
T11 sequence (P31749 whole entry): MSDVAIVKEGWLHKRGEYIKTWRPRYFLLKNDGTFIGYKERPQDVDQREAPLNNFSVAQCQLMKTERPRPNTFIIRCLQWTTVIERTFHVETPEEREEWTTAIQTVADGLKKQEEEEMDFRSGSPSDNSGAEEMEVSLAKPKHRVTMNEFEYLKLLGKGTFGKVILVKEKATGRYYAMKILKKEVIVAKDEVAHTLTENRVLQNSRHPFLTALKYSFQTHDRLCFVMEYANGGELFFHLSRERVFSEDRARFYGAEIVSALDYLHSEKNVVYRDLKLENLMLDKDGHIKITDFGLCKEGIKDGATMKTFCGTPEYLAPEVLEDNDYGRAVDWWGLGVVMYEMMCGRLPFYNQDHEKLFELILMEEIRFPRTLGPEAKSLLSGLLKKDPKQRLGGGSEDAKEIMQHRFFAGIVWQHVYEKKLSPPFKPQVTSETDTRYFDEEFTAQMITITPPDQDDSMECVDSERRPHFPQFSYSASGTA
Procedure: as §1, §2

[12] = target: T12, PKCα (Homo sapiens, UniProt P17252); assay: as above; assay type: biochemical
T12 construct: purchased Millipore (Kinase Profiler service)
Procedure: as §1, §2

[13] = target: T13, Pim-1 (Homo sapiens, UniProt P11309); assay: as above; assay type: biochemical
T13 construct: purchased Millipore (Kinase Profiler service)
T13 sequence (P11309 whole entry): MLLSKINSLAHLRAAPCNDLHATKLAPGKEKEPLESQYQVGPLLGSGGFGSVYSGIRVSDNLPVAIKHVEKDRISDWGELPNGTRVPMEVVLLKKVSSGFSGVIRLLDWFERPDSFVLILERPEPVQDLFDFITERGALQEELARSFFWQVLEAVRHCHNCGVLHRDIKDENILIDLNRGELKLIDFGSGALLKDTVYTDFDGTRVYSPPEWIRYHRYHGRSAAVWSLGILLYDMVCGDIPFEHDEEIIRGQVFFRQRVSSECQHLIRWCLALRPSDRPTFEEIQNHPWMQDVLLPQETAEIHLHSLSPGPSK
Procedure: as §1, §2

[14] = target: T14, Pim-2 (Homo sapiens, UniProt Q9P1W9); assay: as above; assay type: biochemical
T14 construct: purchased Millipore (Kinase Profiler service)
Procedure: as §1, §2

[15] = target: T15, Src (Homo sapiens, UniProt P12931); assay: as above; assay type: biochemical
T15 construct: purchased Millipore (Kinase Profiler service)
Procedure: as §1, §2

[16] = target: T16, Syk (Homo sapiens, UniProt P43405); assay: as above; assay type: biochemical
T16 construct: purchased Millipore (Kinase Profiler service)
Procedure: as §1, §2

[17] = target: T17, mTOR (Homo sapiens, UniProt P42345); assay: as above; assay type: biochemical
T17 construct: purchased Millipore (Kinase Profiler service)
Procedure: as §1, §2

[18] = Preliminary toxicity evaluation in treated mice; assay type: in vivo
Procedure: A preliminary toxicity evaluation to SKLB-850 was also carried out. […] Besides, toxic pathologic changes in liver, lung, kidney, spleen, and heart were not detected by microscopic examination (Figure 5C).
To investigate potential side effects or toxicity on mice during the treatment, anorexia skin ulceration, weight loss, diarrhea, and toxic death were observed continuously for relevant indexes. The tissues of heart, liver, spleen, lung, and kidney were stained with hematoxylin and eosin (H&E). ALT, AST, BUN and CREA in serum were measured by the National Chengdu Center for Safety Evaluation of Traditional Chinese Medicine using commercially available kits.

[19] = tested on: Syk/ERK, Src/FAK and JAK2/STAT3 signaling pathways in Ramos cell; assay: Western blot of Syk/ERK, Src/FAK and JAK2/STAT3 signaling; assay type: cell-based, Human; design: Syk, Src, JAK2 phosphorylation (in words): dose or concentration left out as unconfirmed; conditions: 24 hours
Procedure: (§3) To understand the mechanism of antitumor activities in vivo, pivotal protein activities of Syk/ERK, Src/FAK and JAK2/STAT3 signaling pathways were detected by Western blot analysis. […] Immunohistochemistry assays were performed using tumor tissues isolated from the Ramos tumor model at the end of treatment.
Figure 7 Western blot and histochemical analyses of tumor tissues from the Ramos model (A) SKLB-850 inhibited Syk/ERK, Src/FAK and JAK2/STAT3 signaling pathways. The Ramos cells were incubated for 24 hours in medium containing vehicle, SKLB-850, or R788, and then lysed for western blot assay. (B) H&E staining and immunohistochemical staining of NF-κB, p-Src, p-STAT3 and p-Syk in tumor tissues isolated from vehicle, R788 or SKLB-850 treated groups. SKBL-850 inhibited p-JAK2, p-FAK, p-Src, p-ERK and p-Syk expression in RAMOS cells.
For Ramos cell immunoplot studies, cancer cells were incubated with vehicle, R788, or SKLB-850 for 24 hours, and then lysed in RIPA buffer (Beyotime, China) containing Roche protease inhibitor cocktail, and the protein concentrations were determined by the Bradford method. […]

[20] = tested on: Syk, Src/FAK, JAK2/STAT3 and NF-κB p65 phosphorylation in Ramos tumor tissues; assay: Immunohistochemistry of phospho-proteins in tumor tissues from the Ramos tumor model; assay type: in vivo, NOD/SCID mice
Procedure: as §3
Paraffin sections from each group were stained with hematoxylineosin (H&E). For immunohistochemistry studies, tumor tissues in the Ramos model were performed and the following antibodies were used: phospho-Src (Cell Signaling Technology, 1:100), phospho-FAK (Cell Signaling Technology, 1:100), phospho-Stat3 (Cell Signaling Technology, 1:100), NF-κB p-65(Cell Signaling Technology, 1:100) and phospho-Syk (Cell Signaling Technology, 1:100). Additionally, Rat anti-mouse CD31 antibody (BD Biosciences, USA) and anti-Ki67 antibody (Gene Tech) were used to determine vessel density and cell proliferation following the manufacturer’s protocol, respectively. A DAKO polymer secondary antibody system (Dako Envision 1K4007) was used for secondary detection. Images were captured using an Olympus digital camera.

T1 sequence (Q00526 whole entry): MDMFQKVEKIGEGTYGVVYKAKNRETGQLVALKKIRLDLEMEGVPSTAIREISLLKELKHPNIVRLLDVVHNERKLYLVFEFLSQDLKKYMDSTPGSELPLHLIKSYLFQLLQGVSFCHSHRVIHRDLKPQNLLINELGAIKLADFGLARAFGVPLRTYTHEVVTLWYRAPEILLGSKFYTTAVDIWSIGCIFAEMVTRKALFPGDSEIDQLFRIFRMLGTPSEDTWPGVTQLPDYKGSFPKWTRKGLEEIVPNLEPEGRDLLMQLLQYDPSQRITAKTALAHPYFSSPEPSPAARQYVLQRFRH
T1 sequence (P24864 whole entry partner): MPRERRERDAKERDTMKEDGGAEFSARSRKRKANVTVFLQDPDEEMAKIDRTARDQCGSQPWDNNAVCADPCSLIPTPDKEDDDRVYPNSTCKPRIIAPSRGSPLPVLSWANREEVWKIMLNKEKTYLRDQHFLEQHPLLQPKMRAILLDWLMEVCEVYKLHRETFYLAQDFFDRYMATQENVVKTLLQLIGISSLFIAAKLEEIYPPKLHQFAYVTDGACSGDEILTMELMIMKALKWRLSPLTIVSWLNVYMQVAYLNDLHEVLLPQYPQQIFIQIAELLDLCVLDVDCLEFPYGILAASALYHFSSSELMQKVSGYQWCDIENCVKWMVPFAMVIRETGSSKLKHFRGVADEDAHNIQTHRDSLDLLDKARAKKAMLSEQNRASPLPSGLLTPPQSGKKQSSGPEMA

For `CN1CCN(c2ccc(Nc3ncc(F)c(Nc4ccc(Cl)cc4C(N)=O)n3)cc2)CC1` [SKLB-850, 5-chloro-2-((5-fluoro-2-((4-(4-methylpiperazin-1-yl)phenyl)amino)pyrimidin-4-yl)amino) benzamide], the pIC50 [1] was under 5.00, the pIC50 [2] was 6.59 and the pIC50 [3] was under 5.00. It also gave a pIC50 [4] of 6.41, a pIC50 [5] of under 5.00 and a pIC50 [6] of under 5.00. It also gave a pIC50 [7] of under 5.00, a pIC50 [8] of 7.33 and a pIC50 [9] of under 5.00. It also gave a pIC50 [10] of under 5.00, a pIC50 [11] of 5.50 and a pIC50 [12] of under 5.00. The pIC50 [13] was under 5.00, the pIC50 [14] was under 5.00 and the pIC50 [15] was 7.60. The pIC50 [16] was 7.39, the pIC50 [17] was under 5.00 and the “toxic pathologic changes in liver, lung, kidney, spleen, and heart (H&E, in words)” value ([18]; microscopic examination) was “not detected”. For the same compound, the “mouse body weight (in words)” value ([18]; treated groups, monitored once every three days) was “no significant differences in weights”, the “levels of ALT, AST, BUN, and CREA of serum (in words)” value ([18]; treated mice) was “no obvious changes” and the “Syk, Src, JAK2 phosphorylation (in words)” value [19] was “effectively inhibited”. The “phosphorylation levels of ERK, FAK and Stat3 (in words)” value ([19]; concentrations between 0.01μMl and 1μM/ml) was “down-regulated”, the “phosphorylation of NF-κB p65 (in words)” value ([20]; tumor tissues from the Ramos tumor model) was “inhibited” and the “phosphorylations of Syk, Src/FAK and JAK2/STAT3 (in words)” value ([20]; tumor tissues from the Ramos tumor model at the end of treatment) was “inhibited”.
